Measured values: patent US7780978B2, “Oral pharmaceutical compositions and methods of using the same” (Childrens Hospital Los Angeles, priority 2003, dated 2010)

Assays:
[1] = cited from earlier work
[2] = Steady state plasma and tissue levels of 4-HPR in mice fed or gavaged LXS compositions vs capsule contents (HPLC); type: in vivo; conditions: mice, 120, 250 and 560 mg/kg/day
Procedure: FIG. 1. Comparison of 4-HPR in LXS matrix vs Capsule Formulation at 120 mg/kg/day. Cohorts of five mice were feed with 120 mg/kg/day of 4-HPR formulated in various LXS compositions, or 4-HPR expressed from capsules, mixed with mouse chow or Slim-Fast®, divided BID, ×4.5 days. Animals were sacrificed 3 hrs after the last dose and 4-HPR levels in plasma and tissues were assayed by HPLC. […] PLASMA: G1 vs capsule, P=0.006; LYM-X 5.59 vs capsule, P=0.06; LIVER: G1 vs capsule, P=0.013; LYM-X 5.59 vs capsule, P=0.045; LUNGS: G1 vs capsule, P=0.028; G2 vs capsule, P=0.05; KIDNEY: G1 vs capsule, P=0.007; LYM-X 5.59 vs capsule, P=0.06; BRAIN: G1 vs capsule, P=0.01; LYM-X 5.58 vs capsule, P=0.02. Statistical analysis by Student's t-test. Columns, in each set of columns, in sequence from left to right, represent LYM-X 5.57, LYM-X 5.58, LYM-X 5.60, LYM-X 5.59, Capsule Lot #R-6124, LYM-X 5.60 G1 (SLIMFAST™), and LYM-X 5.60 G2 (DI Water).
FIG. 2. Comparison of 4-HPR in LXS™ matrix vs Capsule Formulation at 250 mg/kg/day. […]
To test this hypothesis, we had various LXS™ compositions of 4-HPR prepared that varied in the LPC:MG:FA ratios of the LXS™ matrix. We then feed mice with equal doses of 4-HPR in the LXS™ compositions, or expressed as a slurry from the current oral 4-HPR capsules. […]

CC1=C(/C=C/C(C)=C/C=C/C(C)=C/C(=O)Nc2ccc(O)cc2)C(C)(C)CCC1 [Fenretinide, all-trans-N-(4-hydroxyphenyl)retinamide]
solubility in aqueous solution [1]: minimally soluble | dose dependence of 4-HPR plasma and tissue levels [2]: dose-dependent
